In patent publication US11844845B2, “Cell penetrating peptide, conjugate comprising same, and composition comprising conjugate” (GEMVAX & KAEL CO., LTD., priority 2012, dated 2023):

System: HeLa cell
Assay: Cell penetration of pep(CPP)-FITC conjugate in HeLa cell line, flow cytometry (FACS)
Format: cell-based, Homo sapiens
Conditions: HeLa cells, 20 uM FITC-fused peptide, 37° C. for an hour, control = FITC only
Experimental: Homo sapiens cervix adenocarcinoma cell line as HeLa cell lines were purchased from ATCC (American Type Cell Culture). The cells were cultured in MEM supplemented with 10% fetal bovine serum (Invitrogen, USA), Earle's salts, non-essential amino acids, sodium pyruvate and 100 μg/ml penicillin and 10 units/ml streptomycin and cultured at 37° C., 5% CO2 incubator.
Flow cytometry and Confocal microscope analysis were performed to compare the between degree of cellular uptake of the cells were treated with SEQ ID NO: 2 to SEQ ID NO: 178, pep (CPP) and control.
The cell line was divided in a 6-well plate and cultured in a medium containing 10% fetal bovine serum (Invitrogen, USA), 100 μg/ml penicillin, 100 units/ml streptomycin at 37° C. 5% CO2 incubator for 12 hours. After washing the cell line with PBS, starvation was induced in a Minimum Essential Medium for an hour. 20 uM of each carrier peptide was treated and cultured at 37° C. for an hour. After repeating the step of washing the cells with PBS for three times, Trypsin-EDTA was treated form 10 mins at 37° C. to separate the carrier peptide on the outside of the cell. cells were collected with refrigerated PBS and centrifugation was performed to repeat the step of washing the cells for three times. After then, the cells were suspended in 0.5 ml of PBS containing 4% Paraformaldehyde and fluorescence of the cells was analyzed using FACS Calibur (Becton Dickinson). The cellular uptake aspect of control and various peptides combined with FITC was compared and analyzed by MFI (Mean Fluorescence Intensity).
Analysis results shown in FIGS. 2 to 29 are given in detail in Table 7 below.

Substance	cellular uptake, MFI (Mean Fluorescence Intensity)
EAR (listed as Homo sapiens) [Pep-RIA-90]	9.77 ± 0.97
EARP (listed as Homo sapiens) [Pep-RIA-89]	9.13 ± 0.77
EARPA (listed as Homo sapiens) [Pep-RIA-88]	8.89 ± 0.61
EARPAL (listed as Homo sapiens) [Pep-RIA-87]	9.6 ± 1.76
EARPALL (listed as Homo sapiens) [Pep-RIA-86]	9.95 ± 2.34
EARPALLT (listed as Homo sapiens) [Pep-RIA-85]	10.1 ± 0.34
EARPALLTS (listed as Homo sapiens) [Pep-RIA-84]	10.32 ± 0.49
EARPALLTSR (listed as Homo sapiens) [Pep-RIA-83]	10.27 ± 0.25
EARPALLTSRL (listed as Homo sapiens) [Pep-RIA-82]	10.12 ± 0.95
EARPALLTSRLR (listed as Homo sapiens) [Pep-RIA-81]	14.63 ± 0.22
EARPALLTSRLRF (listed as Homo sapiens) [Pep-RIA-80]	14.7 ± 0.79
EARPALLTSRLRFI (listed as Homo sapiens) [Pep-RIA-79]	10.73 ± 1.18
EARPALLTSRLRFIP (listed as Homo sapiens) [Pep-RIA-78]	13.95 ± 0.57
EARPALLTSRLRFIPKP (listed as Homo sapiens) [Pep-RIA-64]	15.51 ± 0.58
EARPALLTSRLRFIPKPD (listed as Homo sapiens) [Pep-RIA-65]	12.84 ± 1.11
EARPALLTSRLRFIPKPDG (listed as Homo sapiens) [Pep-RIA-66]	13.46 ± 0.19
EARPALLTSRLRFIPKPDGLR (listed as Homo sapiens) [Pep-RIA-68]	14.94 ± 1.88
EARPALLTSRLRFIPKPDGLRP (listed as Homo sapiens) [Pep-RIA-69]	13.72 ± 0.68
EARPALLTSRLRFIPKPDGLRPI (listed as Homo sapiens) [Pep-RIA-70]	16.32 ± 0.44
EARPALLTSRLRFIPKPDGLRPIV (listed as Homo sapiens) [Pep-RIA-71]	17.21 ± 0.52
EARPALLTSRLRFIPKPDGLRPIVN (listed as Homo sapiens) [Pep-RIA-72]	21.7 ± 1.21

Substance	cellular uptake, MFI (Mean Fluorescence Intensity)
EARPALLTSRLRFIPKPDGLRPIVNM (listed as Homo sapiens) [Pep-RIA-73]	24.33 ± 0.89
EARPALLTSRLRFIPKPDGLRPIVNMD (listed as Homo sapiens) [Pep-RIA-74]	21.77 ± 2.01
EARPALLTSRLRFIPKPDGLRPIVNMDY (listed as Homo sapiens) [Pep-RIA-75]	26.21 ± 1.29
EARPALLTSRLRFIPKPDGLRPIVNMDYV (listed as Homo sapiens) [Pep-RIA-76]	22.07 ± 0.64
EARPALLTSRLRFIPKPDGLRPIVNMDYVV (listed as Homo sapiens) [Pep-RIA-77]	87.67 ± 0.93
ELSEAEVRQHREARPALLTSRLRFIPK (listed as Homo sapiens) [Pep-RIA-11]	15.22 ± 0.23
EVRQHREARPALLTSRLRFIPK (listed as Homo sapiens) [Pep-RIA-6]	16.09 ± 2.52
EVRQHREARPALLTSRLRFIPKP (listed as Homo sapiens) [Pep-RIA-40]	15.14 ± 3.52
EVRQHREARPALLTSRLRFIPKPD (listed as Homo sapiens) [Pep-RIA-41]	13.58 ± 2.78
EVRQHREARPALLTSRLRFIPKPDG (listed as Homo sapiens) [Pep-RIA-42]	15.27 ± 1.65
EVRQHREARPALLTSRLRFIPKPDGL (listed as Homo sapiens) [Pep-RIA-43]	15.34 ± 1.35
EVRQHREARPALLTSRLRFIPKPDGLRP (listed as Homo sapiens) [Pep-RIA-45]	14.23 ± 1.65
EVRQHREARPALLTSRLRFIPKPDGLRPI (listed as Homo sapiens) [Pep-RIA-58]	17.96 ± 0.97
FIPK (listed as Homo sapiens) [Pep-RIA-102]	12.64 ± 0.44
HREARPALLTSRLRFIPK (listed as Homo sapiens) [Pep-RIA-2]	20.56 ± 1.23
HREARPALLTSRLRFIPKP (listed as Homo sapiens) [Pep-RIA-16]	15.96 ± 2.37
HREARPALLTSRLRFIPKPD (listed as Homo sapiens) [Pep-RIA-17]	13.61 ± 0.22
HREARPALLTSRLRFIPKPDG (listed as Homo sapiens) [Pep-RIA-22]	14.42 ± 0.28
HREARPALLTSRLRFIPKPDGL (listed as Homo sapiens) [Pep-RIA-29]	15.26 ± 0.95
HREARPALLTSRLRFIPKPDGLR (listed as Homo sapiens) [Pep-RIA-38]	18.02 ± 0.71
HREARPALLTSRLRFIPKPDGLRP (listed as Homo sapiens) [Pep-RIA-49]	15.15 ± 0.62

Substance	cellular uptake, MFI (Mean Fluorescence Intensity)
HREARPALLTSRLRFIPKPDGLRPI (listed as Homo sapiens) [Pep-RIA-62]	18.89 ± 0.75
IPK (listed as Homo sapiens) [Pep-RIA-103]	10.44 ± 0.18
LLT (listed as Homo sapiens) [Pep-RIA-152]	12.58 ± 0.47
LLTS (listed as Homo sapiens) [Pep-RIA-151]	8.81 ± 0.83
LLTSR (listed as Homo sapiens) [Pep-RIA-150]	14.51 ± 0.81
LLTSRL (listed as Homo sapiens) [Pep-RIA-108]	14.59 ± 0.17
LLTSRLR (listed as Homo sapiens) [Pep-RIA-149]	16.2 ± 0.22
LLTSRLRFI (listed as Homo sapiens) [Pep-RIA-147]	14.93 ± 1.55
LLTSRLRFIP (listed as Homo sapiens) [Pep-RIA-146]	17.43 ± 0.49
LLTSRLRFIPK (listed as Homo sapiens) [Pep-RIA-95]	25.79 ± 0.46
LRELSEAEVRQHREARPALLTSRLRFIPK (listed as Homo sapiens) [Pep-RIA-13]	15.37 ± 1.34
LRFIP (listed as Homo sapiens) [Pep-RIA-174]	5.66 ± 0.33
LRFIPK (listed as Homo sapiens) [Pep-RIA-100]	14.69 ± 1.48
LSEAEVRQHREARPALLTSRLRFIPK (listed as Homo sapiens) [Pep-RIA-10]	14.64 ± 0.76
LTS (listed as Homo sapiens) [Pep-RIA-158]	9.91 ± 1.44
LTSR (listed as Homo sapiens) [Pep-RIA-109]	9.37 ± 0.31
LTSRL (listed as Homo sapiens) [Pep-RIA-157]	11.42 ± 0.32
LTSRLR (listed as Homo sapiens) [Pep-RIA-156]	12.21 ± 0.24
LTSRLRF (listed as Homo sapiens) [Pep-RIA-155]	14.31 ± 0.55
LTSRLRFI (listed as Homo sapiens) [Pep-RIA-154]	12.21 ± 1.29
